Experimental data: paper PMC13095408, “DBeQ derivative targets vacuolar protein sorting 4 functions in cancer cells and suppresses tumor growth in mice” (The Journal of Pharmacology and Experimental Therapeutics, 2025)

Assays:
[1] = system: GFP-CHMP4B-expressing U2OS cells; experiment: GFP-CHMP4B accumulation cell-based assay (high-content microscopy); conditions: for 4-107-induced GFP-CHMP4B accumulation on co-treatment: 100 nM BafA1 or 50 μM CQ with 2 μM 4-107, starved, 2 hours
Method: Plates were then scanned using the 20× objective for 1 hour with ≥100 cells/well across 6 fields/well. […] For all other assays, the cells were cultured overnight in black glass-bottom 96-well plates (Cellvis; P96-1.5H-N) then stained, rinsed, and treated with SM containing the indicated compounds (0.1% DMSO or 0.1% DMSO/0.1% ethanol [vehicle] final). Plates were scanned using the 20× NA .70 objective at the indicated intervals with ≥ 300 cells/well across 3 fields/well. […]

[2] = biological target: T1, VPS4B (Homo sapiens, UniProt O75351); experiment: VPS4B ATPase activity, EnzChek Phosphate assay; assay type: biochemical; set-up: His tag (pET28a vector-encoded) (N); made in house; host or cells: Escherichia coli BL21(DE3)
T1 sequence (O75351 1-444): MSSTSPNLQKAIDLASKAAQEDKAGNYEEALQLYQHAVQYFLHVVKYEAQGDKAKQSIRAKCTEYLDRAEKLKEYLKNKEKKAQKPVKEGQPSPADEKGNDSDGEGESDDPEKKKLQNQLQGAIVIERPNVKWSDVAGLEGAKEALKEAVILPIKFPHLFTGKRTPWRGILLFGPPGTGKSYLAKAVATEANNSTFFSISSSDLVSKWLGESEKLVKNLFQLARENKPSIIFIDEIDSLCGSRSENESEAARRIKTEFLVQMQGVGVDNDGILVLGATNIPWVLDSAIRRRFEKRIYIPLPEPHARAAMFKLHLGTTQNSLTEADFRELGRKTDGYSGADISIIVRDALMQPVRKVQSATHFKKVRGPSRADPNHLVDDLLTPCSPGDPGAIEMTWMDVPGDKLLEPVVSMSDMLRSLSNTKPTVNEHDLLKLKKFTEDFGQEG
Method: VPS4B and VCP ATPase activities were measured using the EnzChek Phosphate assay for the quantification of released phosphate. Assay buffers were based on literature precedents ([Cupido et al, 2019], [2021]) as follows: VPS4B buffer (20 mM HEPES-KOH, pH 7.4, 25 mM KOAc, 2 mM MgCl2, 5 mM (NH4)2SO4, 0.5 mM CaCl2, 2.5 mM DTT, 0.1 mg/mL BSA, 0.005% v/v Triton X-100), VCP buffer (20 mM HEPES-NaOH, pH 7.4, 20 mM NaCl, 10 mM MgCl2, 5 mM (NH4)2SO4, 0.5 mM CaCl2, 2.5 mM DTT, 0.1 mg/mL BSA, 0.005% v/v Triton X-100). In black clear-bottom 384-well plates, 22.5 μL of 5% DMSO or 40× test compounds diluted in the respective assay buffer was added to each well. ATPases were diluted to 1 μM in the respective buffers containing 2× EnzChek Phosphate assay coupling reagents of 400 μM MESG and 2 U of PNP, then 25 μL was added to each well. Plates were mixed at 1000 rpm for 30 minutes at RT while being protected from light. The reaction was initiated by adding 2.5 μL of 20 mM MgATP or water followed by mixing at 1200 rpm for 30 seconds at RT. Plates were measured at 360 nm using a CLARIOstar plate reader (BMG LABTECH) for 20 minutes at 37 °C. ATPase activity was calculated as the amount of phosphate released over a 5-minute interval under linear initial velocity conditions. The remaining ATPase activity was calculated by normalizing compound-treated activity values to the DMSO control. IC50 was calculated by fitting normalized values to a sigmoidal dose-response curve with Hill slope = −1 using Graph Pad Prism 10.0.
To identify VPS4i, we developed enzyme- and cell-based VPS4 functional assays to serve as VPS4i-screening platforms. For the enzyme-based assay, we used the colorimetric EnzChek Phosphate assay that detects free phosphate with the advantage of continuous measurement of ATP hydrolysis over time. […] Due to the high sequence and structural similarity of AAA-ATPases, we also established a VCP ATPase assay to evaluate hit selectivity. […] For the cell-based assay, our approach was based on how VPS4 inhibition causes the accumulation of ESCRT-III ([Babst et al, 1998]; [Katoh et al, 2003]). We used an N-terminal GFP-tagged CHMP4B reporter system because it is the most abundant ESCRT-III subunit ([Katoh et al, 2004]; [Teis et al, 2008]). Our aim was to test compounds under short-term serum and amino acid starvation to stimulate ESCRT activity for easier detection of inhibitors ([Takahashi et al, 2018], [2019]). […] Overall, we established 2 systems for VPS4i screening, a VPS4B ATPase activity assay and a GFP-CHMP4B accumulation cell-based assay.

[3] = remaining ATPase activity, screened at 5 μM, mean ± SD, Table 1
[4] = screened at 5 µM, mean ± S.D., Supplemental Table 2
[5] = screened at 1 µM, mean ± S.D., Supplemental Table 2
[6] = screened at 1 μM, starvation media, 1 hour, foci intensity per cell normalized to 4-107, mean ± SD, Table 1

VPS4B ATPase (% DMSO) [2, 4] [% DMSO]	Compound	GFP-CHMP4B (% 4-107) [1, 5] [% 4-107]	further results
	CO/C1=C\C(C)=C\[C@@H](C)[C@@H](O)[C@@H](C)C/C(C)=C/C=C/[C@H](OC)[C@@H]([C@@H](C)[C@@H](O)[C@H](C)[C@@]2(O)C[C@@H](O)[C@H](C)[C@@H](C(C)C)O2)OC1=O [BafA1, bafilomycin A1, reference compound]		4-107-induced GFP-CHMP4B accumulation on co-treatment [1]: blocked
	CCN(CC)CCCC(C)Nc1ccnc2cc(Cl)ccc12 (stereo not shown) [CQ, chloroquine diphosphate, reference compound]		4-107-induced GFP-CHMP4B accumulation on co-treatment [1]: blocked
55.31 ± 5.04	NCc1ccccc1 [Compound 2]	6.69 ± 3.07	VPS4B ATPase (% DMSO) [2, 3]: 55.31 ± 5.04 % DMSO; GFP-CHMP4B (% 4-107) [1, 6]: 6.69 ± 3.07 % 4-107
71.88 ± 3.41	COc1cccc2c(NCc3ccccc3)nc(Cl)nc12 [Compound 3]		VPS4B ATPase (% DMSO) [2, 3]: 71.88 ± 3.41 % DMSO; GFP-CHMP4B (% 4-107) ([1]; screened at 1 µM, mean ± S.D., Supplemental Table 2, listed as 5-125): 3.86 ± 2.41 % 4-107; GFP-CHMP4B (% 4-107) [1, 6]: 3.86 ± 2.41 % 4-107
	COc1cccc2c(NCc3ccccc3)nc(Cl)nc12 [Compound 4-95]	1.76 ± 0.74	
34.70 ± 0.70	COC(=O)c1cccc(CNc2nc(NCc3cccc(C(=O)OC)c3)c3cccc(OC)c3n2)c1 [Compound 4-131-iii]	11.94 ± 9.74	
105.12 ± 0.39	COc1cccc2c(NCc3cccc(C(=O)O)c3)nc(NCc3cccc(C(=O)O)c3)nc12 [Compound 4-131-iv]	1.10 ± 0.68	
	COc1cccc2c(NCc3ccccc3)nc(NCc3ccccc3)nc12 [Compound 4]		VPS4B ATPase (% DMSO) [2, 3]: 75.23 ± 0.63 % DMSO; VPS4B ATPase (% DMSO) ([2]; screened at 5 µM, mean ± S.D., Supplemental Table 2, listed as 5-133): 75.23 ± 0.63 % DMSO; GFP-CHMP4B (% 4-107) ([1]; screened at 1 µM, mean ± S.D., Supplemental Table 2, listed as 5-133): 2.92 ± 2.81 % 4-107; GFP-CHMP4B (% 4-107) [1, 6]: 2.92 ± 2.81 % 4-107
30.96 ± 1.37	COc1cccc2c(NCCc3ccccc3)nc(NCCc3ccccc3)nc12 [Compound 5-03]	2.31 ± 1.75	
28.5 ± 0.04	COc1cccc2c(NCc3ccc(Cl)cc3)nc(NCc3ccc(Cl)cc3)nc12 [Compound 5-07]	14.56 ± 10.71	
82.46 ± 1.64	COc1cccc2c(NCc3ccncc3)nc(NCc3ccncc3)nc12 [Compound 5-11]	1.10 ± 0.76	
77.37 ± 4.37	COc1cccc2c(NCCc3cccc(S(N)(=O)=O)c3)nc(NCCc3ccc(S(N)(=O)=O)cc3)nc12 [Compound 5-15-iv]	3.22 ± 0.67	
86.08 ± 7.25	COc1cccc2c(NCc3ccc(S(N)(=O)=O)cc3)nc(Cl)nc12 [Compound 5-17]	2.87 ± 0.27	
25.77 ± 2.48	COc1cccc2c(NCc3cccc(OC(F)(F)F)c3)nc(NCc3ccccc3)nc12.Cl [Compound 5-33-iv]	5.27 ± 1.53	
88.20 ± 5.24	COc1cccc2c(NCc3ccccc3)nc(NCc3cccc(C(=O)O)c3)nc12 [Compound 5-35-iv]	10.92 ± 9.21	
93.04 ± 0.65	COc1cccc2c(NCc3ccccc3)nc(-n3ccc4ccc(C(=O)O)cc43)nc12 [Compound 5-39-iv]	1.59 ± 0.93	
80.70 ± 2.02	COC(=O)c1ccc2c(ccn2-c2nc(NCc3ccccc3)c3cccc(OC)c3n2)c1 [Compound 5-41-iii]	2.82 ± 1.33	
87.4 ± 1.43	COc1cccc2c(NCc3ccccc3)nc(-n3ccc4cc(C(=O)O)ccc43)nc12 [Compound 5-41-iv]	1.29 ± 1.06	

VPS4B ATPase (% DMSO) [2, 4] [% DMSO]	Compound	GFP-CHMP4B (% 4-107) [1, 5] [% 4-107]	further results
94.98 ± 0.53	COC(=O)c1ccc2ccn(-c3nc(NCCc4ccc(S(N)(=O)=O)cc4)c4cccc(OC)c4n3)c2c1 [Compound 5-43-iii]	3.01 ± 1.98	
99.19 ± 4.43	COc1cccc2c(NCCc3ccc(S(N)(=O)=O)cc3)nc(-n3ccc4ccc(C(=O)O)cc43)nc12 [Compound 5-43-iv]	1.27 ± 0.69	
	COC(=O)c1ccc2c(ccn2-c2nc(NCc3ccc(S(N)(=O)=O)cc3)c3cccc(OC)c3n2)c1 [Compound 5-47]	1.41 ± 0.61	
91.51 ± 3.26	COc1ncnc2c1ccn2-c1nc(NCc2ccccc2)c2cccc(OC)c2n1 [Compound 5-51]	2.51 ± 1.24	
72.71 ± 0.81	COc1ncnc2c1ccn2-c1nc(NCCc2ccccc2)c2cccc(OC)c2n1 [Compound 5-53]	1.68 ± 0.33	
93.20 ± 1.22	COc1cccc2c(NCc3ccc(C(F)(F)F)cc3)nc(-n3ccc4cncnc43)nc12 [Compound 5-55]	2.25 ± 0.55	
93.98 ± 3.83	COc1ncnc2c1ccn2-c1nc(NCc2ccc(C(F)(F)F)cc2)c2cccc(OC)c2n1 [Compound 5-57]	2.44 ± 0.81	
97.54 ± 1.15	COc1cccc2c(NCCc3ccccc3)nc(-n3ccc4cncnc43)nc12 [Compound 5-59]	2.84 ± 0.06	
90.35 ± 0.07	COc1cccc2c(NCCc3cccnc3)nc(-n3ccc4cncnc43)nc12 [Compound 5-63]	5.28 ± 0.27	
	Fc1ccc2nc(NCc3ccccc3)nc(NCc3ccccc3)c2c1 [Compound 5-143]	11.12 ± 2.40	
	COc1cccc2nc(NCc3ccccc3)nc(NCc3ccccc3)c12 [Compound 7-27]	19.55 ± 2.22	
	COc1ccc2c(Nc3ccccc3)nc(Cl)nc2c1 [Compound 7-41]	17.93 ± 2.08	
	COc1ccc2c(Nc3ccccc3)nc(NCc3ccccc3)nc2c1 [Compound 7-45]	24.94 ± 5.94	
	COc1ccc(CNc2nc(NCc3ccccc3)c3cccc(N)c3n2)cc1 [Compound 7-65]	17.36 ± 5.75	
	Nc1cccc2c(NCc3ccccc3)nc(NCc3ccc(F)cc3)nc12 [Compound 7-69]	20.04 ± 6.12	
	COc1cccc2c(Nc3ccccc3)nc(NCc3ccccc3)nc12 [Compound 7-75]	11.57 ± 12.42	
	Nc1cccc2c(NCc3ccccc3)nc(NCc3cccc(F)c3)nc12 [Compound 7-77]	26.24 ± 20.18	
